Experimental data taken from ChEMBL document CHEMBL1201862, “PubChem BioAssay data set” (2004).
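How tested: cells in 96-well plates exposed to compound for 48 hours at five concentrations. At the GI50, growth is halved.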 Activity calls are given as the source filed them. No stated cut-off is given here; in the data, active = GI50 up to about 1.1 µM and inactive = higher.

Assays:
Assay in all cases: growth of human tumour cells (NCI), 48 h
[1] = tested on: A498
[2] = tested on: SK-OV-3
[3] = tested on: UACC-257
[4] = tested on: SF-295
[5] = tested on: NCI-H23
[6] = tested on: OVCAR-8
[7] = tested on: SN12C
[8] = tested on: IGROV-1
[9] = tested on: NCI-H522
[10] = tested on: OVCAR-5
[11] = tested on: TK-10
[12] = tested on: KM12
[13] = tested on: MOLT-4
[14] = tested on: SNB-75
[15] = tested on: SW-620
[16] = tested on: HOP-62
[17] = tested on: UACC-62
[18] = tested on: OVCAR-4
[19] = tested on: SK-MEL-5

Row | SMILES | GI50 [1] | GI50 [2] | GI50 [3] | GI50 [4] | GI50 [5] | GI50 [6] | GI50 [7] | GI50 [8] | GI50 [9] | GI50 [10] | GI50 [11] | GI50 [12] | GI50 [13] | GI50 [14] | GI50 [15] | GI50 [16] | GI50 [17] | GI50 [18] | GI50 [19]
1 | Nc1c2ccccc2nc2c(C(=O)Nc3ccc(S(N)(=O)=O)cc3)cccc12 | > 100 µM (inactive) | > 100 µM (inactive) | > 100 µM (inactive) | > 100 µM (inactive) | > 100 µM (inactive) | 57.9 µM (inactive) | > 100 µM (inactive) | > 100 µM (inactive) | 21.8 µM (inactive) | > 100 µM (inactive) | > 100 µM (inactive) | 32.1 µM (inactive) | 11.1 µM (inactive) | 61.8 µM (inactive) | 66.2 µM (inactive) | > 100 µM (inactive) | 97.5 µM (inactive) | > 100 µM (inactive) | 86.3 µM (inactive)
2 | O=C1C[C@H]2CCCN2[C@@H](c2ccccc2)C1 | > 100 µM (inactive) | > 100 µM (inactive) | > 100 µM (inactive) | > 100 µM (inactive) | > 100 µM (inactive) | > 100 µM (inactive) | > 100 µM (inactive) | > 100 µM (inactive) | > 100 µM (inactive) | > 100 µM (inactive) | > 100 µM (inactive) | > 100 µM (inactive) | > 100 µM (inactive) | > 100 µM (inactive) | > 100 µM (inactive) | > 100 µM (inactive) | > 100 µM (inactive) | > 100 µM (inactive) | > 100 µM (inactive)
3 | COc1ccccc1NC(=O)CC(=O)N1N=C(c2ccccc2)C(/N=N/c2ccc(Cl)cc2)C1=O (configuration not stated) | 15.2 µM (inactive) | 21.9 µM (inactive) | 65 µM (inactive) | 30.5 µM (inactive) | 34.4 µM (inactive) | 41.8 µM (inactive) | 68.1 µM (inactive) | 29.9 µM (inactive) | 32.1 µM (inactive) | > 100 µM (inactive) | 27.7 µM (inactive) | 49.5 µM (inactive) | 41.1 µM (inactive) | 19.7 µM (inactive) | 45.6 µM (inactive) | 23.4 µM (inactive) | 25.7 µM (inactive) | 25.2 µM (inactive) | 14.6 µM (inactive)
4 | Cc1nc2sccn2c1C(=O)NC(=O)Nc1ccc(Cl)cc1 | > 100 µM (inactive) | – | > 100 µM (inactive) | 70.8 µM (inactive) | 35.7 µM (inactive) | > 100 µM (inactive) | > 100 µM (inactive) | > 100 µM (inactive) | 57 µM (inactive) | > 100 µM (inactive) | 30.9 µM (inactive) | > 100 µM (inactive) | > 100 µM (inactive) | 24.3 µM (inactive) | > 100 µM (inactive) | 41.3 µM (inactive) | > 100 µM (inactive) | > 100 µM (inactive) | > 100 µM (inactive)
5 | CCc1ccccc1NC(=O)/C(=N/O)C(C)=O | > 100 µM (inactive) | > 100 µM (inactive) | > 100 µM (inactive) | > 100 µM (inactive) | > 100 µM (inactive) | > 100 µM (inactive) | 96.8 µM (inactive) | > 100 µM (inactive) | > 100 µM (inactive) | – | > 100 µM (inactive) | > 100 µM (inactive) | > 100 µM (inactive) | > 100 µM (inactive) | > 100 µM (inactive) | > 100 µM (inactive) | > 100 µM (inactive) | > 100 µM (inactive) | > 100 µM (inactive)
6 | COc1cc(CCCC(O)COc2cccc3c2C2(O)CCCCCC32)cc(OC)c1 (configuration not stated) | 19.9 µM (inactive) | 23.1 µM (inactive) | 15.6 µM (inactive) | 16.5 µM (inactive) | 16.9 µM (inactive) | 19.1 µM (inactive) | 17.2 µM (inactive) | 15.2 µM (inactive) | 24.9 µM (inactive) | 15.4 µM (inactive) | 14.1 µM (inactive) | 17.2 µM (inactive) | 17.7 µM (inactive) | 12.1 µM (inactive) | 17.2 µM (inactive) | 15 µM (inactive) | 16.4 µM (inactive) | 18.2 µM (inactive) | 7.85 µM (inactive)
7 | CCOC(=O)c1ccc(-c2cc(C)[nH]n2)[nH]1 | 50.4 µM (inactive) | > 100 µM (inactive) | > 100 µM (inactive) | > 100 µM (inactive) | > 100 µM (inactive) | > 100 µM (inactive) | > 100 µM (inactive) | – | > 100 µM (inactive) | > 100 µM (inactive) | > 100 µM (inactive) | 62.5 µM (inactive) | – | > 100 µM (inactive) | > 100 µM (inactive) | > 100 µM (inactive) | > 100 µM (inactive) | > 100 µM (inactive) | > 100 µM (inactive)
8 | CN(CN1C(=O)C2Cc3ccccc3CN2C1=O)c1ccccn1 (configuration not stated) | > 100 µM (inactive) | – | – | > 100 µM (inactive) | > 100 µM (inactive) | > 100 µM (inactive) | > 100 µM (inactive) | > 100 µM (inactive) | > 100 µM (inactive) | > 100 µM (inactive) | > 100 µM (inactive) | > 100 µM (inactive) | > 100 µM (inactive) | – | > 100 µM (inactive) | > 100 µM (inactive) | > 100 µM (inactive) | > 100 µM (inactive) | > 100 µM (inactive)
9 | COc1ccc(/C=C(/C(=O)O)c2cc(OC)c(OC)c(OC)c2)cc1 | 52.4 µM (inactive) | > 100 µM (inactive) | 31.5 µM (inactive) | – | 27.2 µM (inactive) | 63.5 µM (inactive) | 46.9 µM (inactive) | > 100 µM (inactive) | 16.8 µM (inactive) | > 100 µM (inactive) | – | 63 µM (inactive) | 45.4 µM (inactive) | 21.6 µM (inactive) | 61 µM (inactive) | 35 µM (inactive) | 43.6 µM (inactive) | 41.4 µM (inactive) | 41.1 µM (inactive)
10 | CC(=O)OCC1OC(n2c(C)c(C(C)=O)c(-c3ccco3)c(C#N)c2=S)C(OC(C)=O)C(OC(C)=O)C1OC(C)=O (configuration not stated) | 85.1 µM (inactive) | > 100 µM (inactive) | > 100 µM (inactive) | > 100 µM (inactive) | > 100 µM (inactive) | > 100 µM (inactive) | > 100 µM (inactive) | – | > 100 µM (inactive) | > 100 µM (inactive) | > 100 µM (inactive) | > 100 µM (inactive) | 60 µM (inactive) | – | > 100 µM (inactive) | > 100 µM (inactive) | > 100 µM (inactive) | – | 78.5 µM (inactive)
11 | CC1=CC2CC(C)=C(CC[C@]3(C)CC[C@H]([C@@H](C)C(=O)O)OO3)C(C)(C)C2CC1 (some centres not stated) | 1.75 µM (inactive) | 2.2 µM (inactive) | 1.53 µM (inactive) | 1.36 µM (inactive) | 0.9 µM (active) | 0.603 µM (active) | 0.391 µM (active) | 0.212 µM (active) | 0.171 µM (active) | 2.34 µM (inactive) | 1.76 µM (inactive) | 0.128 µM (active) | – | 0.853 µM (active) | 0.177 µM (active) | 1.75 µM (inactive) | 1.49 µM (inactive) | 0.442 µM (active) | 1.26 µM (inactive)
12 | O=C(Cc1nc2ccccc2s1)C(=O)Nc1cccc(Cl)c1 | > 100 µM (inactive) | > 100 µM (inactive) | > 100 µM (inactive) | > 100 µM (inactive) | > 100 µM (inactive) | > 100 µM (inactive) | > 100 µM (inactive) | > 100 µM (inactive) | > 100 µM (inactive) | > 100 µM (inactive) | > 100 µM (inactive) | > 100 µM (inactive) | – | 48.9 µM (inactive) | > 100 µM (inactive) | > 100 µM (inactive) | > 100 µM (inactive) | > 100 µM (inactive) | > 100 µM (inactive)
13 | Nc1nc(-c2ccccc2)cc(-c2ccccc2O)n1 | 40.7 µM (inactive) | 85.9 µM (inactive) | 73.8 µM (inactive) | 71.6 µM (inactive) | 43.3 µM (inactive) | 39.7 µM (inactive) | 37.8 µM (inactive) | 49.4 µM (inactive) | 22.9 µM (inactive) | 32.8 µM (inactive) | 46.7 µM (inactive) | 23.9 µM (inactive) | 25.1 µM (inactive) | 36.6 µM (inactive) | 41.1 µM (inactive) | 25.1 µM (inactive) | 59.2 µM (inactive) | 51.6 µM (inactive) | –
14 | O=CC1=CCCC2(C1)OCCO2 | > 100 µM (inactive) | > 100 µM (inactive) | > 100 µM (inactive) | > 100 µM (inactive) | > 100 µM (inactive) | > 100 µM (inactive) | > 100 µM (inactive) | > 100 µM (inactive) | > 100 µM (inactive) | – | > 100 µM (inactive) | > 100 µM (inactive) | – | 4.95 µM (inactive) | > 100 µM (inactive) | > 100 µM (inactive) | > 100 µM (inactive) | > 100 µM (inactive) | > 100 µM (inactive)
15 | CCS(=O)(=O)c1c2cc(OC)ccc2nc2ccc(OC)cc12 | > 100 µM (inactive) | > 100 µM (inactive) | > 100 µM (inactive) | > 100 µM (inactive) | > 100 µM (inactive) | > 100 µM (inactive) | > 100 µM (inactive) | > 100 µM (inactive) | > 100 µM (inactive) | > 100 µM (inactive) | > 100 µM (inactive) | > 100 µM (inactive) | > 100 µM (inactive) | > 100 µM (inactive) | > 100 µM (inactive) | > 100 µM (inactive) | > 100 µM (inactive) | > 100 µM (inactive) | –
